We go through ten molecules from patent US20110166121A1 (LG LIFE SCIENCES LTD., priority 2008, published 2011).

In this experiment the test system is Human platelet aggregation caused by ADP. Briefly: Inhibition of ADP-induced platelet aggregation (Mimic-human PRP). The experiment is classed as cell-based. The note with it: 20 μM ADP, human platelet concentrate diluted with PPP, absorption at 595 nm. In short, it runs like this:
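Ki came from non-linear sigmoidal fits of inhibition, measured as the 3-min rise in absorbance at 595 nm after 20 μM ADP, relative to 0/20 μM ADP controls. Platelets (3–4×10^8/mL in PPP-diluted human PRP) were exposed to 0.01–30 μM compound for 20 min at room temperature beforehand.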

In general, Ki refers to the equilibrium dissociation constant of an inhibitor or competing ligand from its target. `CCCC(=O)N1CC[C@@H](Nc2nc(N3CCn4c(nnc4C(F)(F)F)C3)c3cc(CCC)sc3n2)C1` [Example 8-17, 1-{(R)-3-[6-Propyl-4-(3-trifluoromethyl-5,6-dihydro-8H-[1,2,4]triazolo[4,3-a]pyrazin-7-yl)-thieno[2,3-d]pyrimidin-2-ylamino]-pyrrolidin-1-yl}-butan-1-one]: the affinity, expressed as Ki, was 35 nM.

`CCCc1cc2c(N3CCn4c(nnc4C(F)(F)F)C3)nc(N[C@@H]3CCN(C(=O)C(C)C)C3)nc2s1` [Example 8-18, 2-Methyl-1-{(R)-3-[6-propyl-4-(3-trifluoromethyl-5,6-dihydro-8H-[1,2,4]triazolo[4,3-a]pyrazin-7-yl)-thieno[2,3-d]pyrimidin-2-ylamino]-pyrrolidin-1-yl}-propan-1-one] showed a Ki of 41 nM. In the case of `CCCc1cc2c(N3CCn4c(nnc4C(F)(F)F)C3)nc(NC[C@@H]3CCN(C(C)=O)C3)nc2s1` [Example 8-19, 1-((S)-3-{[6-Propyl-4-(3-trifluoromethyl-5,6-dihydro-8H-[1,2,4]triazolo[4,3-a]pyrazin-7-yl)-thieno[2,3-d]pyrimidin-2-ylamino]-methyl}-pyrrolidin-1-yl)-ethanone], affinity was put at a Ki of 150 nM.

In the case of `CCCC(=O)N1CC[C@@H](CNc2nc(N3CCn4c(nnc4C(F)(F)F)C3)c3cc(CCC)sc3n2)C1` [Example 8-20, 1-((S)-3-{[6-Propyl-4-(3-trifluoromethyl-5,6-dihydro-8H-[1,2,4]triazolo[4,3-a]pyrazin-7-yl)-thieno[2,3-d]pyrimidin-2-ylamino]-methyl}-pyrrolidin-1-yl)-butan-1-one], the affinity corresponds to a Ki of 410 nM. `CCCc1cc2c(N3CCn4c(nnc4C(F)(F)F)C3)nc(NC[C@@H]3CCN(C(=O)C(C)C)C3)nc2s1` [Example 8-21, 2-Methyl-1-((S)-3-{[6-propyl-4-(3-trifluoromethyl-5,6-dihydro-8H-[1,2,4]triazolo[4,3-a]pyrazin-7-yl)-thieno[2,3-d]pyrimidin-2-ylamino]-methyl}-pyrrolidin-1-yl)-propan-1-one]: the affinity, expressed as Ki, was 270 nM. With `CCCc1cc2c(N3CCn4c(nnc4C(F)(F)F)C3)nc(NC[C@H]3CCN(C(C)=O)C3)nc2s1` [Example 8-22, 1-((R)-3-{[6-Propyl-4-(3-trifluoromethyl-5,6-dihydro-8H-[1,2,4]triazolo[4,3-a]pyrazin-7-yl)-thieno[2,3-d]pyrimidin-2-ylamino]-methyl}-pyrrolidin-1-yl)-ethanone], the inhibitory constant (Ki) was 220 nM. The Ki values of the last two molecules are within 1.5-fold of each other. With `CCCC(=O)N1CC[C@H](CNc2nc(N3CCn4c(nnc4C(F)(F)F)C3)c3cc(CCC)sc3n2)C1` [Example 8-23, 1-((R)-3-{[6-Propyl-4-(3-trifluoromethyl-5,6-dihydro-8H-[1,2,4]triazolo[4,3-a]pyrazin-7-yl)-thieno[2,3-d]pyrimidin-2-ylamino]-methyl}-pyrrolidin-1-yl)-butan-1-one] the figure was 570 nM. With `CCCc1cc2c(N3CCn4c(nnc4C(F)(F)F)C3)nc(NC[C@H]3CCN(C(=O)C(C)C)C3)nc2s1` [Example 8-24, 2-Methyl-1-((R)-3-{[6-propyl-4-(3-trifluoromethyl-5,6-dihydro-8H-[1,2,4]triazolo[4,3-a]pyrazin-7-yl)-thieno[2,3-d]pyrimidin-2-ylamino]-methyl}-pyrrolidin-1-yl)-propan-1-one] the figure was 1400 nM. Molecule `CCCc1cc2c(N3CCn4c(nnc4C(F)(F)F)C3)nc(OC3CN(C(=O)C(C)C)C3)nc2s1` [Example 8-27, 2-Methyl-1-{3-[6-propyl-4-(3-trifluoromethyl-5,6-dihydro-8H-[1,2,4]triazolo[4,3-a]pyrazin-7-yl)-thieno[2,3-d]pyrimidin-2-yloxy]-azetidin-1-yl}-propan-1-one] displayed a Ki of 260 nM.

In the case of `CCCc1cc2c(N3CCn4c(nnc4C(F)(F)F)C3)nc(OC[C@H]3CCCN3C(C)=O)nc2s1` [Example 8-28, -{(R)-2-[6-Propyl-4-(3-trifluoromethyl-5,6-dihydro-8H-[1,2,4]triazolo[4,3-a]pyrazin-7-yl)-thieno[2,3-d]pyrimidin-2-yloxymethyl]-pyrrolidin-1-yl}-ethanone], the inhibition constant (Ki) stood at 45 nM.
